IC50 data for 25 compounds are collected here from US12378224B2 (Dong-A Socio Holdings Co., Ltd., priority 2016, dated 2025).

SMILES strings stand for the structures.

The test addresses human MER (528-end) (Homo sapiens (Human), UniProt Q12866). Put plainly: HTRF Kinase Activity Biochemical Assay (KinEASE-TK). Particulars: 10 uM ATP. The method in brief: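 Recombinant human MER (528-end) phosphorylated biotin-TK peptide substrate, 1 h at room temperature. Reaction stopped with detection buffer containing 0.375 nM Eu3+-cryptate anti-TK antibody and 0.062 uM streptavidin-XL665, 1 h further. Activity taken as HTRF ratio 665/620 nm ×10,000, 340 nm excitation.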

Sequence of human MER (528-end) (Q12866 528-999 limits assumed): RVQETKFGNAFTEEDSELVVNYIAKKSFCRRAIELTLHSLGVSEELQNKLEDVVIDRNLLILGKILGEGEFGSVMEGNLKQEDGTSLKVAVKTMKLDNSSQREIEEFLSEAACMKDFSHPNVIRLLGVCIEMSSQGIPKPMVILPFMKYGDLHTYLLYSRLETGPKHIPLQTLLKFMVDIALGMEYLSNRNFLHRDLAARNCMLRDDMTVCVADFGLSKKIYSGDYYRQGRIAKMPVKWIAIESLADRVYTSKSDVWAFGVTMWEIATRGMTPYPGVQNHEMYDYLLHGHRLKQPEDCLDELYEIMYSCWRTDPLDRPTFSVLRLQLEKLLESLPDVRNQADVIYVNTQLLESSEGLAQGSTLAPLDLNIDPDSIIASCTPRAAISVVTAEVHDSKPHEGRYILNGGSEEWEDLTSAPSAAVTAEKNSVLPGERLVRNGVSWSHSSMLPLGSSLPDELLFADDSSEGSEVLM

Take `Cn1cc(-c2cnc(N)c(C(=O)N[C@@H]3CCN(C(=O)Oc4cccc(-c5cncc6ccccc56)c4)C3)c2)cn1` [Example 289, 3-(isoquinolin-4-yl)phenyl (R)-3-(2-amino-5-(1-methyl-1H-pyrazol-4-yl)nicotinamido)pyrrolidine-1-carboxylate]: the IC50 was 10 to 100 nM. To `CN1CCN(c2cc(-c3cccc(OC(=O)N4CC[C@@H](NC(=O)c5cc(-c6cnn(C)c6)cnc5N)C4)c3)ccn2)CC1` [Example 290, 3-(2-(4-methylpiperazin-1-yl)pyridin-4-yl)phenyl (R)-3-(2-amino-5-(1-methyl-1H-pyrazol-4-yl)nicotinamido)pyrrolidine-1-carboxylate] belongs greater than 1000 nM; to `CN1CCN(Cc2ccc(-c3ccc4cc(OC(=O)N5CC[C@@H](NC(=O)c6cc(-c7cnn(C)c7)cnc6N)C5)ccc4c3)cc2)CC1` [Example 293, 6-(4-((4-methylpiperazin-1-yl)methyl)phenyl)naphthalen-2-yl (R)-3-(2-amino-5-(1-methyl-1H-pyrazol-4-yl)nicotinamido)pyrrolidine-1-carboxylate], 100 to 1000 nM; to `Cn1cc(-c2cnc(N)c(C(=O)N[C@@H]3CCN(C(=O)Oc4ccc5ccc(OCC6CCNCC6)cc5c4)C3)c2)cn1` [Example 298], 100 to 1000 nM. To `Cn1cc(-c2cnc(N)c(C(=O)N[C@@H]3CCN(C(=O)Oc4ccc5ccc(OCCO)cc5c4)C3)c2)cn1` [Example 299, 7-(2-hydroxyethoxy)naphthalen-2-yl (R)-3-(2-amino-5-(1-methyl-1H-pyrazol-4-yl)nicotinamido)pyrrolidine-1-carboxylate] belongs 100 to 1000 nM. To `Cn1cc(-c2cnc(N)c(C(=O)N[C@@H]3CCN(C(=O)Oc4cccc(-c5ccc(CNC6CNC6)cc5)c4)C3)c2)cn1` [Example 306, 4′-((azetidin-3-ylamino)methyl)-[1,1′-biphenyl]-3-yl (R)-3-(2-amino-5-(1-methyl-1H-pyrazol-4-yl)nicotinamido)pyrrolidine-1-carboxylate] belongs 100 to 1000 nM; to `Cn1cc(-c2cnc(N)c(C(=O)N[C@@H]3CCN(C(=O)Oc4cccc(-c5ccc(CNCCN)cc5)c4)C3)c2)cn1` [Example 307, 4′-(((2-aminoethyl)amino)methyl)-[1,1′-biphenyl]-3-yl (R)-3-(2-amino-5-(1-methyl-1H-pyrazol-4-yl)nicotinamido)pyrrolidine-1-carboxylate], 100 to 1000 nM. For `CN(C)CCNCc1ccc(-c2cccc(OC(=O)N3CC[C@@H](NC(=O)c4cc(-c5cnn(C)c5)cnc4N)C3)c2)cc1` [Example 308, 4′-(((2-(dimethylamino)ethyl)amino)methyl)-[1,1′-biphenyl]-3-yl (R)-3-(2-amino-5-(1-methyl-1H-pyrazol-4-yl)nicotinamido)pyrrolidine-1-carboxylate], the IC50 lay in the range of 100 to 1000 nM.

`CN1CC[C@@H](NCc2ccc(-c3cccc(OC(=O)N4CC[C@@H](NC(=O)c5cc(-c6cnn(C)c6)cnc5N)C4)c3)cc2)C1` [Example 310, 4′-((((R)-1-methylpyrrolidin-3-yl)amino)methyl)-[1,1′-biphenyl]-3-yl (R)-3-(2-amino-5-(1-methyl-1H-pyrazol-4-yl)nicotinamido)pyrrolidine-1-carboxylate] displayed an IC50 of 100 to 1000 nM. To `CN(C)C1CCN(Cc2ccc(-c3cccc(OC(=O)N4CC[C@@H](NC(=O)c5cc(-c6cnn(C)c6)cnc5N)C4)c3)cc2)C1` (stereo partly drawn) [Example 311, 4′-((3-(dimethylamino)pyrrolidin-1-yl)methyl)-[1,1′-biphenyl]-3-yl (3R)-3-(2-amino-5-(1-methyl-1H-pyrazol-4-yl)nicotinamido)pyrrolidine-1-carboxylate] belongs 100 to 1000 nM; to `Cn1cc(-c2cnc(N)c(C(=O)N[C@@H]3CCN(C(=O)Oc4cccc(-c5ccc(CNC[C@@H]6CCCN6)cc5)c4)C3)c2)cn1` [Example 312, 4′-(((((S)-pyrrolidin-2-yl)methyl)amino)methyl)-[1,1′-biphenyl]-3-yl (R)-3-(2-amino-5-(1-methyl-1H-pyrazol-4-yl)nicotinamido)pyrrolidine-1-carboxylate], 100 to 1000 nM; to `Cn1cc(-c2cnc(N)c(C(=O)N[C@@H]3CCN(C(=O)Oc4cccc(-c5ccc(CN[C@@H]6CCNC6)cc5)c4)C3)c2)cn1` [Example 313, 4′-((((R)-pyrrolidin-3-yl)amino)methyl)-[1,1′-biphenyl]-3-yl (R)-3-(2-amino-5-(1-methyl-1H-pyrazol-4-yl)nicotinamido)pyrrolidine-1-carboxylate], 100 to 1000 nM. To `CCN1CCC[C@@H]1CNCc1ccc(-c2cccc(OC(=O)N3CC[C@@H](NC(=O)c4cc(-c5cnn(C)c5)cnc4N)C3)c2)cc1` [Example 314, 4′-(((((R)-1-ethylpyrrolidin-2-yl)methyl)amino)methyl)-[1,1′-biphenyl]-3-yl (R)-3-(2-amino-5-(1-methyl-1H-pyrazol-4-yl)nicotinamido)pyrrolidine-1-carboxylate] belongs 100 to 1000 nM; to `Cn1cc(-c2cnc(N)c(C(=O)N[C@@H]3CCN(C(=O)Oc4cccc(-c5ccc(CN[C@H]6CCCNC6)cc5)c4)C3)c2)cn1` [Example 315, 4′-((((S)-piperidin-3-yl)amino)methyl)-[1,1′-biphenyl]-3-yl (R)-3-(2-amino-5-(1-methyl-1H-pyrazol-4-yl)nicotinamido)pyrrolidine-1-carboxylate], 100 to 1000 nM. Take `Cn1cc(-c2cnc(N)c(C(=O)N[C@@H]3CCN(C(=O)Oc4cccc(-c5ccc(CN6CCC[C@@H](N)C6)cc5)c4)C3)c2)cn1` [Example 316, 4′-(((R)-3-aminopiperidin-1-yl)methyl)-[1,1′-biphenyl]-3-yl (R)-3-(2-amino-5-(1-methyl-1H-pyrazol-4-yl)nicotinamido)pyrrolidine-1-carboxylate]: the 50% inhibitory concentration (IC50) was in the range of 100 to 1000 nM. To `CN1CCC(NCc2ccc(-c3cccc(OC(=O)N4CC[C@@H](NC(=O)c5cc(-c6cnn(C)c6)cnc5N)C4)c3)cc2)CC1` [Example 318, 4′-(((1-methylpiperidin-4-yl)amino)methyl)-[1,1′-biphenyl]-3-yl (R)-3-(2-amino-5-(1-methyl-1H-pyrazol-4-yl)nicotinamido)pyrrolidine-1-carboxylate] belongs 100 to 1000 nM. To `Cn1cc(-c2cnc(N)c(C(=O)N[C@@H]3CCN(C(=O)Oc4cccc(-c5ccc(CN6CCCC(O)C6)cc5)c4)C3)c2)cn1` (stereo partly drawn) [Example 319, 4′-((3-hydroxypiperidin-1-yl)methyl)[1,1′-biphenyl]-3-yl (3R)-3-(2-amino-5-(1-methyl-1H-pyrazol-4-yl)nicotinamido)pyrrolidine-1-carboxylate] belongs 100 to 1000 nM; to `Cn1cc(-c2cnc(N)c(C(=O)N[C@@H]3CCN(C(=O)Oc4cccc(-c5ccc(CN6CCCC(CO)C6)cc5)c4)C3)c2)cn1` (stereo partly drawn) [Example 320, 4′-((3-(hydroxymethyl)piperidin-1-yl)methyl)-[1,1′-biphenyl]-3-yl (3R)-3-(2-amino-5-(1-methyl-1H-pyrazol-4-yl)nicotinamido)pyrrolidine-1-carboxylate], 100 to 1000 nM; to `Cn1cc(-c2cnc(N)c(C(=O)N[C@@H]3CCN(C(=O)Oc4cccc(-c5ccc(CN6CCC(CO)CC6)cc5)c4)C3)c2)cn1` [Example 321, 4′-((4-(hydroxymethyl)piperidin-1-yl)methyl)-[1,1′-biphenyl]-3-yl (R)-3-(2-amino-5-(1-methyl-1H-pyrazol-4-yl)nicotinamido)pyrrolidine-1-carboxylate], 100 to 1000 nM. To `CN1CC[C@@H]2CN(Cc3ccc(-c4cccc(OC(=O)N5CC[C@@H](NC(=O)c6cc(-c7cnn(C)c7)cnc6N)C5)c4)cc3)C[C@@H]21` [Example 322, 4′-(((3aR,6aR)-1-methylhexahydropyrrolo[3,4-b]pyrrol-5(1H)-yl)methyl)-[1,1′-biphenyl]-3-yl (R)-3-(2-amino-5-(1-methyl-1H-pyrazol-4-yl)nicotinamido)pyrrolidine-1-carboxylate] belongs 100 to 1000 nM; to `Cn1cc(-c2cnc(N)c(C(=O)N[C@@H]3CCN(C(=O)Oc4cccc(-c5ccc(CN6CCCNCC6)cc5)c4)C3)c2)cn1` [Example 323, 4′-((1,4-diazepan-1-yl)methyl)-[1,1′-biphenyl]-3-yl (R)-3-(2-amino-5-(1-methyl-1H-pyrazol-4-yl)nicotinamido)pyrrolidine-1-carboxylate], 100 to 1000 nM.

`Cn1cc(-c2cnc(N)c(C(=O)N[C@@H]3CCN(C(=O)Oc4cccc(-c5ccc(CN6CCC[C@@H]6CO)cc5)c4)C3)c2)cn1` [Example 324, 4′-(((R)-2-(hydroxymethyl)pyrrolidin-1-yl)methyl)-[1,1′-biphenyl]-3-yl (R)-3-(2-amino-5-(1-methyl-1H-pyrazol-4-yl)nicotinamido)pyrrolidine-1-carboxylate] had a 50% inhibitory concentration (IC50) of 100 to 1000 nM.

For the compound `Cn1cc(-c2cnc(N)c(C(=O)N[C@@H]3CCN(C(=O)Oc4cccc(-c5ccc(CN6CCC[C@H]6C(N)=O)cc5)c4)C3)c2)cn1` [Example 325, 4′-(((S)-2-carbamoylpyrrolidin-1-yl)methyl)-[1,1′-biphenyl]-3-yl (R)-3-(2-amino-5-(1-methyl-1H-pyrazol-4-yl)nicotinamido)pyrrolidine-1-carboxylate], the IC50 is greater than 1000 nM.

`C[C@H](CO)NCc1ccc(-c2cccc(OC(=O)N3CC[C@@H](NC(=O)c4cc(-c5cnn(C)c5)cnc4N)C3)c2)cc1` [Example 327, 4′-((((R)-1-hydroxypropan-2-yl)amino)methyl)-[1,1′-biphenyl]-3-yl (R)-3-(2-amino-5-(1-methyl-1H-pyrazol-4-yl)nicotinamido)pyrrolidine-1-carboxylate] returned an IC50 of 100 to 1000 nM. To `Cn1cc(-c2cnc(N)c(C(=O)N[C@@H]3CCN(C(=O)Oc4cccc(-c5ccc(CNCCCO)cc5)c4)C3)c2)cn1` [Example 328, 4′-(((3-hydroxypropyl)amino)methyl)-[1,1′-biphenyl]-3-yl (R)-3-(2-amino-5-(1-methyl-1H-pyrazol-4-yl)nicotinamido)pyrrolidine-1-carboxylate] belongs 100 to 1000 nM.
